Key:
anesthetized rat = assay: Histamine-stimulated acid secretion suppression test using anesthetized rat; assay type: in vivo; details: 1 mg/kg i.v., anesthetized SD rat, 3 hr after histamine
Description: Histamine-Stimulated Acid Secretion Suppression Test Using Anesthetized Rat 7-Week-old Jcl: male SD rats were fasted for about 24 hr and used for the experiment. Under urethane (1.2 g/kg, i.p.) anesthesia, the abdomen was incised along the middle-spinal line and the pyloric ring was ligated. Test compound (1 mg/kg) was intravenously administered, the abdominal incision was sutured, and histamine dihydrochloride (30 mg/kg/10 mL) dissolved in physiological saline was subcutaneously administered. After 3 hr from histamine administration, the rats were killed with carbon dioxide gas. The stomach was isolated and the accumulated gastric fluid was collected. The gastric fluid amount was measured and the acid level was measured using acid titration apparatus COM-555 (HIRANUMA SANGYO Co., Ltd.), and the product thereof was taken as the acid secretion level. The acid secretion suppressive rate of the test compound was determined from the comparison with control.

Caspase-3/7 = Caspase-3/7 activity test; assay type: cell-based, human; details: HepG2, 100 μM, culture for one day, relative to staurosporine maximum as 100%, no test reagent as 0%
Description: (§1) Human hepatocellular liver carcinoma cell line HepG2 (ATCC No. HB-8065) was maintained and subcultured at 5% CO2, 37° C. in a Dulbecco's modified Eagle medium (DMEM; Invitrogen) medium containing 10% fetal bovine serum (FBS; TRACE SCIENTIFIC LTD.), 1 mmol/L sodium pyruvate (Invitrogen), 2 mmol/L L-glutamine (Invitrogen), 50 IU/mL penicillin (Invitrogen), 50 μg/mL streptomycin (Invitrogen). Test reagent was prepared to 10 mM with DMSO, and diluted with DMEM medium containing 0.5% FBS, 1 mmol/L sodium pyruvate, 2 mmol/L L-glutamine, 50 IU/ml penicillin, 50 μg/mL streptomycin to the DMSO final concentration of 0.1%. HepG2 (2×10^4 cells/well) was cultured on a 96 well white plate (Costar) together with the test reagent at 5% CO2, 37° C. After culture for one day, the intracellular ATP content was measured with ATPLite™ (PerkinElmer Life Sciences). The results are shown in Table 1 as relative value (%) to the control (free of compound) at 100 μm (n≧3, mean±SD). Caspase-3/7 Activity Test The cells were cultured for one day according to a method similar to the method of Experimental Example 3, and the intracellular Caspase-3/7 activity was measured by Caspase-Glo 3/7 Assay (Promega). The results are shown in Table 1 as relative activity (%) of each test reagent when the maximum value of Caspase-3/7 activity on exposure to staurosporine as 100%, and activity without addition of test reagent as 0% (n≧3, mean±SD).

HepG2 = assay: ATP content test; assay type: cell-based, human; details: HepG2, 100 μM, culture for one day, relative value to control (free of compound)
Description: as §1, with “ATP Content Test Human” for “Human”, “mean±SD).” for “mean±SD). Caspase-3/7 Activity Test The cells were cultured for one day according to a method similar to the method of Experimental Example 3, and the intracellular Caspase-3/7 activity was measured by Caspase-Glo 3/7 Assay (Promega). The results are shown in Table 1 as relative activity (%) of each test reagent when the maximum value of Caspase-3/7 activity on exposure to staurosporine as 100%, and activity without addition of test reagent as 0% (n≧3, mean±SD).”

H^+/K^+-ATPase = target: T1, H^+/K^+-ATPase (Sus scrofa, UniProt P19156); assay: Proton potassium-adenosine triphosphatase (H+,K+-ATPase) inhibitory activity test; assay type: biochemical; details: swine gastric mucosa microsomal fraction, pH 6.5, 37° C.
T1 construct: The obtained microsomal fraction was used as proton, potassium-adenosine triphosphatase preparations; from tissue; host or cells: swine stomach, microsomal fraction of gastric mucosa
T1 sequence (P19156 whole entry): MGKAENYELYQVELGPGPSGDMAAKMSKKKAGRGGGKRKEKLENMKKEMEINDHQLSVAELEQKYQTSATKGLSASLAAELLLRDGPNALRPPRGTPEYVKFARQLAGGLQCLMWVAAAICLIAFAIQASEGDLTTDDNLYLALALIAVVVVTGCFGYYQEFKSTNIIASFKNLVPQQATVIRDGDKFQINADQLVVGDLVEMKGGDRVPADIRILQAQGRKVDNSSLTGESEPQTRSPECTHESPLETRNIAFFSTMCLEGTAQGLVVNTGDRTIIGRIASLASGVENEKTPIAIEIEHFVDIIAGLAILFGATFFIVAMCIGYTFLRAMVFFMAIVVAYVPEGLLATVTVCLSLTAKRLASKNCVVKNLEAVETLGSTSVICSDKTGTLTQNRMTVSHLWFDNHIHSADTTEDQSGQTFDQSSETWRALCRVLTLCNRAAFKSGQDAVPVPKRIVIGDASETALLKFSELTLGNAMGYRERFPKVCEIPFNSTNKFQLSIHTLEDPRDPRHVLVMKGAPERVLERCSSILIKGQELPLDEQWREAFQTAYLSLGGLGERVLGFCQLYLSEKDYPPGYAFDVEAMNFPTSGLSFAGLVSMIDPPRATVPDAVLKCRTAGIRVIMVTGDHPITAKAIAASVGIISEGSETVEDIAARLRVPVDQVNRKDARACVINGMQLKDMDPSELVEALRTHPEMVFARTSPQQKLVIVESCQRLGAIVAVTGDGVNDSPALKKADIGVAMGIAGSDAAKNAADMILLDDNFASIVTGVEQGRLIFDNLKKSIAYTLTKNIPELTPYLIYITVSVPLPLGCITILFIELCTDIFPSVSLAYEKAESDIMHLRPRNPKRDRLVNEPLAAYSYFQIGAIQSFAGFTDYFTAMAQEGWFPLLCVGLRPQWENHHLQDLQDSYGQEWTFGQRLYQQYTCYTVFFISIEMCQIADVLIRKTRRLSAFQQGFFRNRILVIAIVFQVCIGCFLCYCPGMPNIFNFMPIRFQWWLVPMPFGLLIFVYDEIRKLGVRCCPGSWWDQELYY
T1 sequence (P18434 whole entry partner): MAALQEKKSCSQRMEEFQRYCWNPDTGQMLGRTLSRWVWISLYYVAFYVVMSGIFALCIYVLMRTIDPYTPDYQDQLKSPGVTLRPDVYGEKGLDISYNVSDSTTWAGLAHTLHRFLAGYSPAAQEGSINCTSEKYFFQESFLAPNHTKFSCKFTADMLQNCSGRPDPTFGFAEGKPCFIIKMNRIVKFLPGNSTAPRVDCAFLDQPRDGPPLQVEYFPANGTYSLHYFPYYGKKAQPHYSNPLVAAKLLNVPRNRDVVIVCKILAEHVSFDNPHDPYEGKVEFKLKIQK
Description: Proton Potassium-Adenosine Triphosphatase (H^+,K^+-ATPase) Inhibitory Activity Test According to the method of Wallmark et al. [Biochim. Biophys. Acta, 728, 31 (1983)], a microsomal fraction of gastric mucosa was prepared from the stomach of swine. First, the stomach was removed, washed with tap water, and immersed in 3 mol/L sodium chloride, and the surface of the mucosa was wiped with a paper towel. The gastric mucosa was removed, minced, and homogenized in a 0.25 mol/L sucrose solution (pH 6.8) containing 1 mmol/L EDTA and 10 mmol/L tris-hydrochloric acid using polytron (Kinematica). The obtained homogenate was centrifuged at 20,000×g for 30 min and the supernatant was centrifuged at 100,000×g for 90 min. The precipitate was suspended in 0.25 mol/L sucrose solution, the suspension was superimposed on a 0.25 mol/L sucrose solution containing 7.5% Ficoll, and centrifuged at 100,000×g for 5 hr. The fraction containing the interface between the both layers was recovered, and centrifugally washed with 0.25 mol/L sucrose solution. The obtained microsomal fraction was used as proton, potassium-adenosine triphosphatase preparations. To 50 mmol/L HEPES-Tris buffer (5 mmol/L magnesium chloride, 10 mmol/L potassium chloride, 10 μmol/L valinomycin, pH=6.5, 40 μL) containing 2.5 μg/mL enzyme preparation based on the protein concentration was added a test compound (5 μL) dissolved in 10% dimethyl sulfoxide solution, and the mixture was incubated at 37° C. for 30 min. A 2 mmol/L adenosine triphosphate tris salt solution (50 mmol/L HEPES-tris buffer (5 mmol/L magnesium chloride, pH 6.5), 5 μL) was added to start an enzyme reaction. The enzyme reaction was performed at 37° C. for 20 min, and then a malachite green solution (a mixture of 0.12% malachite green sulfate (2.5 mol/L) solution, 7.5% ammonium molybdate and 11% Tween 20 at a ratio of 100:25:2, 15 μL) was added to stop the reaction. The reaction mixture was stood at room temperature for 15 min, and the resulting reaction product of inorganic phosphorus and malachite green was measured by colorimetric quantification at a wavelength of 610 nm. In addition, the amount of inorganic phosphoric acid in a reaction solution free of potassium chloride was also measured in the same manner, and the value was extracted from that in the presence of potassium chloride, whereby the proton, potassium-adenosine triphosphatase activity was measured. The inhibitory rate (%) was determined from the activity value of the control and that at each concentration of the test compound, and 50% inhibitory concentration (IC50) to proton, potassium-adenosine triphosphatase was determined.

| SMILES | acid secretion inhibitory rate (%, 1 mg/kg, intravenous administration, rat) (anesthetized rat) | Caspase-3/7 activity (%, 100 μM) (Caspase-3/7) | ATP content (%, 100 μM) (HepG2) | IC50 (H^+/K^+-ATPase) |
| --- | --- | --- | --- | --- |
| CNCc1cc(S(=O)(=O)c2ccc(F)cc2)n(-c2cccnc2F)n1.Cl [Example 1, 1-{5-[(4-fluorophenyl)sulfonyl]-1-(2-fluoropyridin-3-yl)-1H-pyrazol-3-yl}-N-methylmethanamine hydrochloride] | 98% | 0.1% | 95.9% | 120 nM |
| CNCc1cc(S(=O)(=O)c2ccc(OC)cc2)n(-c2cccnc2F)n1.Cl [Example 2, 1-{1-(2-fluoropyridin-3-yl)-5-[(4-methoxyphenyl)sulfonyl]-1H-pyrazol-3-yl}-N-methylmethanamine hydrochloride] | 82% | – | – | 350 nM |
| CNCc1cc(S(=O)(=O)c2cccc(C)c2)n(-c2cccnc2F)n1.Cl [Example 3, 1-{1-(2-fluoropyridin-3-yl)-5-[(3-methylphenyl)sulfonyl]-1H-pyrazol-3-yl}-N-methylmethanamine hydrochloride] | 95% | −0.2% | 90.1% | 88 nM |
| CNCc1cc(S(=O)(=O)c2cccc(C#N)c2)n(-c2cccnc2F)n1.Cl [Example 4, 3-({1-(2-fluoropyridin-3-yl)-3-[(methylamino)methyl]-1H-pyrazol-5-yl}sulfonyl)benzonitrile hydrochloride] | 99% | 1.0% | 98.5% | 230 nM |

— patent US8895588B2, “Pyrazole compound” (Takeda Pharmaceutical Company Limited, priority 2009, dated 2014)
